Measurements taken from PMC3544137, “Isolation identification and biochemical characterization of a novel halo-tolerant lipase from the metagenome of the marine sponge Haliclona simulans” (Microbial Cell Factories, 2012).

Biological target: T1, Lpc53E1 (uncultured bacterium, UniProt I4AY78)
T1 construct: primer-encoded N-terminus MKSRLNDI
Assay: p-nitrophenol release at […] nm, Lineweaver-Burk
Assay type: biochemical
Settings: pH 7, 40 °C; unit printed as mM^-1 (presumably mM); unit of the source corrected

T1 sequence (I4AY78 1-387 limits assumed): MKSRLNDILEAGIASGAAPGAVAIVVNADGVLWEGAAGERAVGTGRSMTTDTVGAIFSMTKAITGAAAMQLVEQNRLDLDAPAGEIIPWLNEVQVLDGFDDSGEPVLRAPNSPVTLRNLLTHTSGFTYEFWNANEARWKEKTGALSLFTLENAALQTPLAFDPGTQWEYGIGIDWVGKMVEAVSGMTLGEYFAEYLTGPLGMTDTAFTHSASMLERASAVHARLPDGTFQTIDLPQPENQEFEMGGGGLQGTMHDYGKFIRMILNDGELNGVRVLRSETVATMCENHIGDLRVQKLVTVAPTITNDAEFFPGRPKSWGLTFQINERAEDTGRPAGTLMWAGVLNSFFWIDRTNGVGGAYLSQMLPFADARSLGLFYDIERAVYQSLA

CCCCCCCCCCCCCCCC(=O)Oc1ccc([N+](=O)[O-])cc1 [pNPP, p-nitrophenyl palmitate]
KM: 1.09 mM
